Data from patent US20260306488A1, “FUNCTIONAL PROTECTIVE AGENT FOR ORGAN OR TISSUE” (TOHOKU UNIVERSITY, priority 2023, published 2026).

Tests used:
[1] = test system: adenine-fed renal failure model mouse; experiment: Plasma markers (creatinine, ALT, total cholesterol) in adenine-fed renal failure model mouse; type: in vivo, mouse (male C57BL/6); conditions: plasma samples after 2-week feeding
Procedure: (§1) In order to confirm that a present compound has an effect of protecting kidney function and liver function in a renal failure model, 2,5-diketopiperazine (cGP; see Table 1) encompassed in the present compound was used for performing analysis in which the cGP is administered to a model mouse with chronic renal failure induced by feeding adenine (hereinafter referred to as the “adenine-fed renal failure model mouse”) to analyze the blood concentration of a uremic substance (creatinine), that is, an indicator of kidney function, and a ratio of renal tubules, as well as to analyze blood concentrations of three liver function markers (ALT, AST, and γGTP) and two lipids (total cholesterol and TG). The adenine-fed renal failure model mouse is a mouse that develops kidney damage because fed adenine crystallizes as insoluble 2,8-dihydroxyadenine in the renal tubules (Cozzolino, M. et al. Kidney Int. 64, 441-450 (2003), Tamagaki, K. et al. Nephrol. Dial. Transplant 21, 651-659 (2006)).
(§2) The analysis using an adenine-fed renal failure model mouse was performed according to the following procedures through:
(§3) [1] 8-Week old male C57BL/6 mice (purchased from Japan CLEA) were grouped into a normal diet group (n=6) to be fed a normal diet (CE-2, manufactured by Japan CLEA), and an adenine-fed group (n=12) to be fed the normal diet containing 0.2% adenine (manufactured by Wako).
[2] After feeding the mice for 6 weeks, the adenine-fed group was grouped into an adenine-fed control group (n=6) to be fed the normal diet, and an adenine-fed cGP group (n=6) to be fed the normal diet containing cGP. The normal diet containing cGP was prepared by mixing cGP (manufactured by Bachem) with the normal diet to a final concentration of 0.0025%.
[3] After feeding the mice for 2 weeks, blood samples were harvested from each of the three groups (the normal diet group, the adenine-fed control group, and the adenine-fed cGP group) to prepare plasma samples (referred to as “plasma samples after 2-week feeding”) according to a usual method.
[4] […]

[2] = test system: adenine-fed renal failure model mouse; experiment: Kidney tissue analysis by Masson's Trichrome Staining in adenine-fed renal failure model mouse (ratio of renal tubules); type: in vivo, mouse (male C57BL/6); conditions: adenine-fed cGP group (0.0025% cGP in diet) vs adenine-fed control group; FIG. 2A, Dunnett's test p<0.01; FIG. 2 legend says after 2-week feeding, method says tissue harvested at 3 weeks
Procedure: as §1, §2, §3
[2] […]

[3] = test system: diabetes model mouse (db/db mouse); experiment: Liver tissue analysis by HE staining in diabetes model mouse; type: in vivo, mouse (BKS-db/db); conditions: diabetes model cGP group (cGP in diet) vs diabetes model normal diet group; after 6-week feeding; FIG. 4
Procedure: (§4) Next, in order to confirm that the present compound protects kidney function and liver function in a diabetes model, cGP was administered to a diabetes model mouse (db/db mouse) to analyze blood concentrations of two uremic substances (creatinine and phenyl sulfate), as well as a blood concentration of a factor leading to renal failure in a patient with type 1 diabetes (N6-acetyllysine [Ac6Lys]), and additionally, pathological tissues of liver and blood concentrations of three liver function markers (ALT, AST, and γGTP) and two lipids (total cholesterol and TG) were analyzed.
(§5) The analysis using a diabetes model mouse was performed according to the following procedures through:
[1] Wild-type mice (BKS-m+/m+ mice, purchased from Japan CLEA) having been fed a normal diet (CE-2, manufactured by Japan CLEA) were grouped into a wild-type normal diet group (n=5) to be fed the normal diet, and a wild-type cGP group (n=4) to be fed the normal diet containing cGP. Besides, diabetes model mice (BKS-db/db mice; purchased from Japan CLEAR) having been fed the normal diet were grouped into a diabetes model normal diet group (n=4) to be fed the normal diet, and a diabetes model cGP group (n=4) to be fed the normal diet containing cGP. […]

[4] = test system: diabetes model mouse (db/db mouse); experiment: Plasma creatinine, phenyl sulfate and Ac6Lys in diabetes model mouse; type: in vivo, mouse (BKS-db/db)
Procedure: as §4, §5
[1] Wild-type mice (BKS-m+/m+ mice, purchased from Japan CLEA) having been fed a normal diet (CE-2, manufactured by Japan CLEA) were grouped into a wild-type normal diet group (n=5) to be fed the normal diet, and a wild-type cGP group (n=4) to be fed the normal diet containing cGP. Besides, diabetes model mice (BKS-db/db mice; purchased from Japan CLEAR) having been fed the normal diet were grouped into a diabetes model normal diet group (n=4) to be fed the normal diet, and a diabetes model cGP group (n=4) to be fed the normal diet containing cGP. Blood samples were harvested from the diabetes model cGP group, and plasma samples (referred to as the “plasma samples after 0-week feeding”) were prepared according to a usual method.
[2] After feeding the mice for 6 weeks, blood samples were harvested from the above four groups (the wild-type normal diet group, the wild-type cGP group, the diabetes model normal diet group, and the diabetes model cGP group), plasma samples (referred to as the “plasma samples after 6-week feeding”) were prepared according to a usual method, and then, liver tissues were harvested, fixed in 10% neutral-buffered formalin, and embedded in paraffin, and the resultant paraffin-embedded liver tissues were sliced to prepare liver tissue sections.
[3] The thus obtained “plasma samples after 0-week feeding” and “plasma samples after 6-week feeding” were used to measure blood concentrations of the three substances (creatinine, phenyl sulfate, and Ac6Lys) (see FIGS. 5 and 6), and blood concentrations of three liver function markers (ALT, AST, and γGTP) and two lipids (total cholesterol and TG) by mass spectrometry using LC-MS/MS (manufactured by Shimadzu Corporation). Besides, the liver tissue sections prepared as described above were used to perform analysis by Hematoxylin and Eosin (HE) staining method according to a usual method (see FIG. 4).

[5] = test system: diabetes model mouse (db/db mouse); experiment: Plasma uremic substances (m1A and TMAO) in diabetes model mouse; type: in vivo, mouse (BKS-db/db); conditions: diabetes model cGP group (cGP in diet) vs diabetes model normal diet group, after 5-week feeding, Unpaired t-test p<0.01
Procedure: Next, in order to confirm that the present compound reduces chronic inflammation and resulting cellular damage, and prevents vascular complication in a diabetes model, cGP was administered to a diabetes model mouse (db/db mouse) to analyze blood concentrations of two uremic substances (1-methyladenosine [m1A] and trimethylamine-N-oxide [TMAO]).
as §5
[1] Diabetes model mice (BKS-db/db mice, purchased from Japan CLEA) having been fed a normal diet (CE-2, manufactured by Japan CLEA) were grouped into a diabetes model normal diet group (n=10) to be fed the normal diet, and a diabetes model cGP group (n=10) to be fed the normal diet containing cGP.
[2] After feeding the mice for 5 weeks, blood samples were harvested from the above two groups (the diabetes model normal diet group, and the diabetes model cGP group), and plasma samples were prepared according to a usual method.
[3] The thus prepared plasma samples were used to measure blood concentrations of two uremic substances (m1A and TMAO) by mass spectrometry using LC-MS/MS (manufactured by Shimadzu Corporation) (see FIG. 7).

O=C1NCC(=O)N2CCCC12 (centres unmarked) [cGP, cyclo-glycyl-proline]
ALT concentration in plasma ([1]; adenine-fed cGP group (0.0025% cGP in diet) vs adenine-fed control group, FIG. 3A, Dunnett's test p<0.05): significantly decreased | total cholesterol concentration in plasma ([1]; adenine-fed cGP group (0.0025% cGP in diet) vs adenine-fed control group, FIG. 3B, Dunnett's test p<0.05): significantly decreased | creatinine concentration in plasma ([1]; adenine-fed cGP group (normal diet containing 0.0025% cGP) vs adenine-fed control group, FIG. 1, Dunnett's test): significantly decreased | ratio of renal tubules in the renal cortex [2]: significantly increased | fat droplets in the liver [3]: reduced | creatinine concentration in plasma ([4]; diabetes model cGP group (cGP in diet) vs diabetes model normal diet group, plasma samples after 6-week feeding, FIG. 5, Dunnett's test): significantly decreased | blood concentration of creatinine, week 6 vs week 0 ([4]; diabetes model cGP group (cGP in diet), week 6 after feeding compared to week 0, FIG. 6A, Paired t-test p<0.05): significantly lower | blood concentration of phenyl sulfate, week 6 vs week 0 ([4]; diabetes model cGP group (cGP in diet), week 6 after feeding compared to week 0, FIG. 6B, Paired t-test p<0.05): significantly lower | blood concentration of N6-acetyllysine (Ac6Lys), week 6 vs week 0 ([4]; diabetes model cGP group (cGP in diet), week 6 after feeding compared to week 0, FIG. 6C, Paired t-test p<0.05): significantly lower | m1A (1-methyladenosine) concentration in plasma ([5]; FIG. 7A): significantly reduced | TMAO (trimethylamine-N-oxide) concentration in plasma ([5]; FIG. 7B): significantly reduced
